In ChEMBL document CHEMBL5506002, “The discovery of potent USP2/USP8 dual-target inhibitors for the treatment of breast cancer via structure guided optimization of ML364” (Eur J Med Chem, 2024):

Tests used:
[1] = biological target: T1, Ubiquitin carboxyl-terminal hydrolase 2 (Homo sapiens, UniProt O75604); experiment: Inhibition of USP2 (267 to 599 residues) (unknown origin) expressed in Escherichia coli BL21 (DE3) cells using ubiquitin-rhodamine-110 as substrate preincubated with compound for 30 mins followed by substrate addition measured after 30 mins by fluorometric assay
T1 sequence (O75604 whole entry): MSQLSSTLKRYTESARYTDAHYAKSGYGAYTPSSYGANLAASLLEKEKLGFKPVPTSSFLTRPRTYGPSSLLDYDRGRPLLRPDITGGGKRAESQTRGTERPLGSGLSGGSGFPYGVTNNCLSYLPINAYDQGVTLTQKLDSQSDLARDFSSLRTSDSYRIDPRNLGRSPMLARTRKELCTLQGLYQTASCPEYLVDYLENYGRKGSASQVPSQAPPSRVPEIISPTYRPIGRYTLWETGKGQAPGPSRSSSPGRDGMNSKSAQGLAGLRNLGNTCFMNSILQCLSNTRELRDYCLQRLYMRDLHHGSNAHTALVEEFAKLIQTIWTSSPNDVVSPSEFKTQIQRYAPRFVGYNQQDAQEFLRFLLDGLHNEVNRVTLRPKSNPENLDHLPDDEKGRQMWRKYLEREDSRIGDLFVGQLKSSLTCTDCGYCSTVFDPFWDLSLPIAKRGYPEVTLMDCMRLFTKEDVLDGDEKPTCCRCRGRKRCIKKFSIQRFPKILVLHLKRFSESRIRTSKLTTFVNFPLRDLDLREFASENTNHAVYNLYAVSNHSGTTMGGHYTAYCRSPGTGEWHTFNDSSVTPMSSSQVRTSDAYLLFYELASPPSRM

[2] = in vitro; conditions: human, microsomes
Description: Stability in human microsomes assessed as compound remaining measured after 30 mins

[3] = in vitro; conditions: mouse, microsomes
Description: Stability in mouse microsomes assessed as compound remaining measured after 30 mins

[4] = test system: MCF7; experiment: Antiproliferative activity against human MCF7 cells assessed as inhibition of cell growth incubated for 72 hrs by MTT assay; type: functional, cell-based; conditions: MCF7, 72 h
[5] = biological target: T2, Ubiquitin carboxyl-terminal hydrolase 8 (Homo sapiens, UniProt P40818); experiment: Inhibition of N-terminal His6 tagged USP8 (734 to 1110 residues) (unknown origin) expressed in Escherichia coli BL21 (DE3) cells using ubiquitin-rhodamine-110 as substrate preincubated with compound for 30 mins followed by substrate addition measured after 30 mins by fluorometric assay
T2 sequence (P40818 whole entry): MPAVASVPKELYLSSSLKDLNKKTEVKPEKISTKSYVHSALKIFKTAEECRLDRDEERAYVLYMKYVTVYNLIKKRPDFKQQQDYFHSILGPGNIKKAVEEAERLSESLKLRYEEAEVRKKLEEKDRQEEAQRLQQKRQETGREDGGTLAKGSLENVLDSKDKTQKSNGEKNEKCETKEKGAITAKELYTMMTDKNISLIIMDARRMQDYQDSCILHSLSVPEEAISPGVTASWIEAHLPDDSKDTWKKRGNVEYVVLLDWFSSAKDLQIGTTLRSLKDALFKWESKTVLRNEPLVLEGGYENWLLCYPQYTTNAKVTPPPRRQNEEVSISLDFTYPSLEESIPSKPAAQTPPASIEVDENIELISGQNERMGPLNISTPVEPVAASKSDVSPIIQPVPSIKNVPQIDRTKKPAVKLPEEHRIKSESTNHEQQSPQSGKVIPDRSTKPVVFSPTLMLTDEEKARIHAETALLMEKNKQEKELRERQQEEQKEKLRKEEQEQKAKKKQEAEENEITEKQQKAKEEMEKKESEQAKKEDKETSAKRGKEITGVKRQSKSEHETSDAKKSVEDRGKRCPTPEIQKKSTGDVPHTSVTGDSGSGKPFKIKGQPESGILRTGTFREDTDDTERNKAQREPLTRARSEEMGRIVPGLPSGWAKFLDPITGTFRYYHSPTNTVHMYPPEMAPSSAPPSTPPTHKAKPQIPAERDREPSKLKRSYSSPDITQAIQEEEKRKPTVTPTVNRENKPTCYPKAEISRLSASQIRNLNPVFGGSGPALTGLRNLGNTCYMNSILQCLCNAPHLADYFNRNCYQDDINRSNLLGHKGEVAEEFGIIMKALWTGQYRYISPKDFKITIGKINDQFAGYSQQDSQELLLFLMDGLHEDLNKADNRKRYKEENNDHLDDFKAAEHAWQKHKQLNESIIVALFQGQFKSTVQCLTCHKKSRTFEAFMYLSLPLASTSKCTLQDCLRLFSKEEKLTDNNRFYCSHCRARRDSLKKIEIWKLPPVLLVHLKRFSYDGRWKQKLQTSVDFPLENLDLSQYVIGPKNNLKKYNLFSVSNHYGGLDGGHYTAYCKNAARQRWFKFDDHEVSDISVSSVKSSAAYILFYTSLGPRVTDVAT

[6] = in vitro; conditions: mouse, plasma
Description: Stability in mouse plasma assessed as compound remaining measured after 30 mins

[7] = Cytotoxicity against human MCF-10A cells assessed as inhibition of cell growth incubated for 72 hrs by MTT assay; type: toxicity, cell-based
[8] = biological target: T1, Ubiquitin carboxyl-terminal hydrolase 2; experiment: Inhibition of USP2 (unknown origin) using Di-Ub IQF K48-4 as substrate preincubated for 10 mins followed by substrate addition by high-throughput assay
[9] = biological target: T2, Ubiquitin carboxyl-terminal hydrolase 8; experiment: Inhibition of USP8 (unknown origin) using Di-Ub IQF K48-02 as substrate preincubated for 30 mins followed by substrate addition by high-throughput assay

IC50 [1] [µM] | remaining at 0.5 h [2] [%] | remaining at 0.5 h [3] [%] | IC50 [4] [µM] | IC50 [5] [µM] | remaining at 0.5 h [6] [%] | IC50 [8] [µM] | IC50 [9] [µM] | SMILES | IC50 at 72 h [7] [µM]
3.6 | > 90 | 72 | 9.3 | 4.7 | > 90 |  |  | Cc1ccc(S(=O)(=O)Nc2cc(C(F)(F)F)ccc2C(=O)Nc2nc(-c3ccccc3)cs2)cc1 | 14.5
 |  |  |  |  |  | < 0.8 | < 0.1 | CCCCS(=O)(=O)Cc1nc2c(nc1CS(=O)(=O)CCCC)C(=O)c1ccccc1C2=O | 
